Legend:
[1] = biological target: T1, soluble guanylate cyclase (sGC) (Rattus norvegicus, UniProt P20595); assay: Stimulation of sGC enzyme activity (PPi detection, luciferase); assay type: biochemical; conditions: sGC enzyme in vitro; for EC50: read-out: EC50 (concentration at 50% of maximum efficacy), activating action at the sGC enzyme
T1 construct: made in house; host or cells: Sf9 insect cells (baculovirus)
Protocol: Soluble guanylate cyclase (sGC) converts on stimulation GTP into cGMP and pyrophosphate (PPi). PPi is detected with the aid of the assay described below. The signal produced in the assay increases as the reaction progresses and serves as a measure of the sGC enzyme activity under the given stimulation.
To carry out the assay, 29 μl of enzyme solution [0-10 nM soluble guanylate cyclase (prepared according to Honicka et al., J. Mol. Med. 77, 14-23 (1999)) in 50 mM TEA, 2 mM MgCl2, 0.1% BSA (fraction V), 0.005% Brij®, pH 7.5] are initially introduced into a microplate, and 1 μl of the substance to be tested (as a serially diluted solution in DMSO) is added. The mixture is incubated at room temperature for 10 min. Then 20 μl of detection mix [1.2 nM Firefly Luciferase (Photinus pyralis luciferase, Promega), 29 μM dehydroluciferin (prepared according to Bitler & McElroy, Arch. Biochem. Biophys. 72, 358 (1957)), 122 μM luciferin (Promega), 153 μM ATP (Sigma) and 0.4 mM DTT (Sigma) in 50 mM TEA, 2 mM MgCl2, 0.1% BSA (fraction V), 0.005% Brij®, pH 7.5] are added. The enzyme reaction is started by adding 20 μl of substrate solution [1.25 mM guanosine 5′-triphosphate (Sigma) in 50 mM TEA, 2 mM MgCl2, 0.1% BSA (fraction V), 0.005% Brij®, pH 7.5] and measured continuously in a luminometer. The extent of the stimulation by the substance to be tested can be determined relative to the signal of the unstimulated reaction.
The activation of haem-free guanylate cyclase is examined by addition of 25 μM of 1H-1,2,4-oxadiazolo[4,3-a]quinoxalin-1-one (ODQ) to the enzyme solution and subsequent incubation for 30 minutes and compared to the stimulation of the native enzyme.

sGC = biological target: T2, sGC (Rattus norvegicus, UniProt P20595); assay: Action at a recombinant guanylate cyclase reporter cell line (CHO reporter cell); assay type: cell-based; conditions: CHO reporter cell in vitro
T2 construct: expressed in transfected cells; host or cells: CHO reporter cell
Protocol: The cellular action of the compounds according to the invention is determined at a recombinant guanylate cyclase reporter cell line, as described in F. Wunder et al., Anal. Biochem. 339, 104-112 (2005).

GAL4-PPARγ = biological target: T3, GAL4-PPARγ (Homo sapiens, UniProt P37231); assay: Cellular PPAR transactivation assay, GAL4-PPARγ chimera in CHO-K1 cells; assay type: cell-based; conditions: for Emax: CHO-K1, maximum effect relative to reference compound (Example 73 of EP 1 452 521-A1 = 100%), read-out: PPARγ efficacy; for EC50: CHO-K1 cells, luciferase reporter, 6 h stimulation
T3 construct: PPARγ (amino acids 203-506); expressed in transfected cells
T3 sequence (P37231 203-505 limits assumed): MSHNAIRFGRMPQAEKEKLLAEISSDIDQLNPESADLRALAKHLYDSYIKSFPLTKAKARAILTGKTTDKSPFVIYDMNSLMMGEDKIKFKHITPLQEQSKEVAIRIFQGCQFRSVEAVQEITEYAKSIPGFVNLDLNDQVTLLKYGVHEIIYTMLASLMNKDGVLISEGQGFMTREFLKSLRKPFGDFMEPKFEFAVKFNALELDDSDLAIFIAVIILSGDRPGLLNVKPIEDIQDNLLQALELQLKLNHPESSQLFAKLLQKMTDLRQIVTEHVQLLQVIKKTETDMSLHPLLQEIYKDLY
Description: (§1) A cellular assay is used to test for potentially activating properties of the compounds according to the invention with respect to the three human isoforms of the peroxisome proliferator-activated receptors (PPARα, PPARγ and PPARδ).
(§2) Since mammalian cells contain different endogenous nuclear receptors which may complicate an unambiguous interpretation of the results, an established chimera system is used in which the respective ligand binding domain of the human PPAR isoforms is fused to the DNA binding domain of the yeast transcription factor GAL4. The resulting GAL4-PPARα, γ and δ chimeras are co-transfected and stably expressed in CHO cells having a reporter construct.
(§3) The GAL4-PPAR expression constructs contain the ligand binding domain of PPARα (amino acids 167-468), PPARγ (amino acids 203-506) and PPARδ (amino acids 138-442) which are PCR-amplified and cloned into the vector pcDNA3.1. The respective expression vectors already contain the GAL4 DNA binding domain (amino acids 1-147) of the vector pFC2-dbd (Stratagene). The reporter construct, which contains five copies of the GAL4 binding site upstream of a thymidine kinase promoter, expresses firefly luciferase (Photinus pyralis) following activation and binding of GAL4-PPARα, γ or δ.
(§4) The day before the test, CHO-K1 cells (chinese hamster ovary; ATCC CCL-61) each stably expressing one of the above-described GAL4-PPAR chimeras and the luciferase reporter gene construct are sown in medium [Optimem (GIBCO) with 2% activated carbon-purified foetal calf serum (Hyclone), 1.35 mM sodium pyruvate (GIBCO) and 0.2% sodium bicarbonate (GIBCO)] in a density of 1×10^3 cells in 96-well microtitre plates (Greiner) and kept in a cell incubator (96% atmospheric humidity, 5% v/v CO2, 37° C.). On the test day, the substances to be tested are taken up in the medium mentioned above, but without addition of calf serum, and added in various concentrations to the cells. After a stimulation period of 6 h, the luciferase activity is measured using a video camera. The relative light units measured give, as a function of the substance concentration, a sigmoidal stimulation curve. The EC50 values are calculated using the computer programme GraphPad PRISM (Version 3.02). The maximum effect of a test substance in the respective PPAR assay is determined as efficacy in percent in comparison to an appropriate reference compound whose maximum effect is defined as 100%.
(§5) The reference compound selected here was the compound 2-(3-{[(2-chloro-4-propoxybenzoyl)-amino]methyl}-4-ethoxybenzyl)tetrahydrofuran-2-carboxylic acid [Example 73 of EP 1 452 521-A1] which is described in the prior art as a potent pan-PPAR agonist.

GAL4-PPARδ = biological target: T4, GAL4-PPARδ (Homo sapiens, UniProt Q03181); assay: Cellular PPAR transactivation assay, GAL4-PPARδ chimera in CHO-K1 cells; assay type: cell-based; conditions: for Emax: CHO-K1, maximum effect relative to reference compound (Example 73 of EP 1 452 521-A1 = 100%), read-out: PPARδ efficacy; for EC50: CHO-K1 cells, luciferase reporter, 6 h stimulation
T4 construct: PPARδ (amino acids 138-442); expressed in transfected cells
T4 sequence (Q03181 138-441 limits assumed): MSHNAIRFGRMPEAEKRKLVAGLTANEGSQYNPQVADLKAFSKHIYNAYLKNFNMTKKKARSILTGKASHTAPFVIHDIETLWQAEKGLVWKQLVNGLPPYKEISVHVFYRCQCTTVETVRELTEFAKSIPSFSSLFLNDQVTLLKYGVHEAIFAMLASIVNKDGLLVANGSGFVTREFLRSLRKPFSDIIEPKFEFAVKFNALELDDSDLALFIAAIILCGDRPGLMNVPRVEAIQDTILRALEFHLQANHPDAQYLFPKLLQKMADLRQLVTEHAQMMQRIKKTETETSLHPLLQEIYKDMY
Description: as §1, §2, §3, §4, §5

GAL4-PPARα = biological target: T5, GAL4-PPARα (Homo sapiens, UniProt Q07869); assay: Cellular PPAR transactivation assay, GAL4-PPARα chimera in CHO-K1 cells; assay type: cell-based; conditions: for Emax: CHO-K1, maximum effect relative to reference compound (Example 73 of EP 1 452 521-A1 = 100%), read-out: PPARα efficacy; for EC50: CHO-K1 cells, luciferase reporter, 6 h stimulation
T5 construct: expressed in transfected cells
T5 sequence (Q07869 167-468): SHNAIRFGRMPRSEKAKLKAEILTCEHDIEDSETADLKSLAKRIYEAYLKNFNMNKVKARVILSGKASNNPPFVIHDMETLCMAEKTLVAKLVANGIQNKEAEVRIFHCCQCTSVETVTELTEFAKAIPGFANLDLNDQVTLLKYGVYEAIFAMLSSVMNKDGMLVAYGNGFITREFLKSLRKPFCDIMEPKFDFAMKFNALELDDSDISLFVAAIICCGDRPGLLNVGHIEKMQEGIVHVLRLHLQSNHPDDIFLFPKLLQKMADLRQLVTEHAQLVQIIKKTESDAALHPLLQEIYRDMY
Description: as §1, §2, §3, §4, §5

T2 sequence (P19686 whole entry partner): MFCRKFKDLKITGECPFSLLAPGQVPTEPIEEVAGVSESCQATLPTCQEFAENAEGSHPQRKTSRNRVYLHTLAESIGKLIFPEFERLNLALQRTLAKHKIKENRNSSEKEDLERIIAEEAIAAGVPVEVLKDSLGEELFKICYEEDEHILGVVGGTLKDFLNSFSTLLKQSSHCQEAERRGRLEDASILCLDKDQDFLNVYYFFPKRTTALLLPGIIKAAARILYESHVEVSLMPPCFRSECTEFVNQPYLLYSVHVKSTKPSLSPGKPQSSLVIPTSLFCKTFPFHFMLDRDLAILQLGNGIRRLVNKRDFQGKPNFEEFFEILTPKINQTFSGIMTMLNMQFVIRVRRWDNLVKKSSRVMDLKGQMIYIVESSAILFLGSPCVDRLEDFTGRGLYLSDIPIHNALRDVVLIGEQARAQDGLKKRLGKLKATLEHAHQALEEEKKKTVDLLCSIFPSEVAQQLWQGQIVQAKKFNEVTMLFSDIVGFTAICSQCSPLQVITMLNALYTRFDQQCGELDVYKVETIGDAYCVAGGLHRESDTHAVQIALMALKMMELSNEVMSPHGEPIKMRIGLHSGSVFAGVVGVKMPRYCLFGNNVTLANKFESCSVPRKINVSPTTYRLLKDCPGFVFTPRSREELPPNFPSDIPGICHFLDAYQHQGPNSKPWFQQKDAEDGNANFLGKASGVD
T2 sequence (P20595 whole entry): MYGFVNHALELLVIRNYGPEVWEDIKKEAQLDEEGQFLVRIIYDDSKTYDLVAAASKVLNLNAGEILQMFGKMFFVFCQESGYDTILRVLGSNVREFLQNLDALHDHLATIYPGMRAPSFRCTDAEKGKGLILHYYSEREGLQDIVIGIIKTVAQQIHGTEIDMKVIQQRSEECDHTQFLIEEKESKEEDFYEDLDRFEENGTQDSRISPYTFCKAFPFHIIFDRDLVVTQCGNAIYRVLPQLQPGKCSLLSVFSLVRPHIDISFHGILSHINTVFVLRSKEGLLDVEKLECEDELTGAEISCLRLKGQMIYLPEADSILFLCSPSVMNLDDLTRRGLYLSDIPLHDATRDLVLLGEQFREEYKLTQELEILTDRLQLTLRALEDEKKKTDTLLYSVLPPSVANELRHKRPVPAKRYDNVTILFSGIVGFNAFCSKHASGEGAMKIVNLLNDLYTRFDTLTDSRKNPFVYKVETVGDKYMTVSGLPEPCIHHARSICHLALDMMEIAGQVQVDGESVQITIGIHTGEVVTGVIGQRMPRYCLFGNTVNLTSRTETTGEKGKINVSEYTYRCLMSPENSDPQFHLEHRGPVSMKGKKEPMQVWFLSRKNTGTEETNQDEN
T1 sequence (P19686 whole entry partner): as the sequence (P19686 whole entry partner) above
T1 sequence (P20595 whole entry): as the sequence (P20595 whole entry) above

SMILES	MEC (minimum effective concentration), activating action at the sGC enzyme [1]	EC50 [1]	MEC (minimum effective concentration), sGC-activating activity in the CHO reporter cell (sGC)	Emax (GAL4-PPARγ)	EC50 (GAL4-PPARγ)	Emax (GAL4-PPARδ)	EC50 (GAL4-PPARδ)	Emax (GAL4-PPARα)	EC50 (GAL4-PPARα)
O=C(Nc1cc(CC2(C(=O)O)CC2)ccc1F)[C@H](c1ccc(Cl)cc1)C1CCCC1 (single isomer, unassigned) [Example 62]	2.2 nM	0.03 µM	1 nM						
O=C(Nc1cc(CC2(C(=O)O)CC2)ccc1Cl)C(c1ccc(Cl)cc1)C1CCC(F)(F)C1 (single isomer, unassigned) [Example 73, 1-(4-Chloro-3-{[(4-chlorophenyl)(3,3-difluorocyclopentyl)acetyl]amino}benzyl)cyclopropane-carboxylic acid]	3.8 nM	0.083 µM	1.7 nM	0%	> 10 µM	0%	> 10 µM	0%	> 10 µM
CC(C(C(=O)Nc1cc(CC2(C(=O)O)CC2)ccc1Cl)c1ccc(CC(F)(F)F)cc1)C(F)(F)F (single isomer, unassigned) [Example 82, 1-[4-Chloro-3-({4,4,4-trifluoro-3-methyl-2-[4-(2,2,2-trifluoroethyl)phenyl]butanoyl}amino)-benzyl]cyclopropanecarboxylic acid]	3.4 nM	0.044 µM	1.7 nM	20%	2.3 µM	0%	> 10 µM	0%	> 10 µM
[2H]C([2H])([2H])OC(c1ccc(Cl)c(NC(=O)[C@H](c2ccc(Cl)cc2)[C@@H](C)C(F)(F)F)c1)C1(C(=O)O)CCC1 (single isomer, unassigned) [Example 105]	36 nM	0.24 µM	3 nM	10%		0%	> 10 µM	0%	> 10 µM
COC(c1ccc(Cl)c(NC(=O)[C@H](c2ccc(Cl)cc2)[C@@H](C)C(F)(F)F)c1)C1(C(=O)O)CCC1 (single isomer, unassigned) [Example 107]	22 nM	0.33 µM	3 nM	10%	2 µM	0%	> 10 µM	0%	> 10 µM
O=C(Nc1cc(CC2(C(=O)O)CC2)ccc1F)[C@H](c1ccc(Cl)cc1)C1CCCC1(F)F (single isomer, unassigned; (+)) [Example 68]	2.6 nM	0.045 µM	1 nM	0%	> 10 µM	0%	> 10 µM	0%	> 10 µM
COC(c1ccc(Cl)c(NC(=O)[C@H](c2ccc(Cl)cc2)[C@@H](C)C(F)(F)F)c1)C1(C(=O)O)CC1 (single isomer, unassigned; (+)) [Example 89]	3.9 nM	0.07 µM	3 nM	0%	> 10 µM	0%	> 10 µM	0%	> 10 µM
C[C@H]([C@H](C(=O)Nc1cc(CC2(C(=O)O)CC2)ccc1Cl)c1ccc(Cl)cc1F)C(F)(F)F [Example 32, (+)-1-(4-chloro-3-{[(2S,3R)-2-(4-chloro-2-fluoro-phenyl)-4,4,4-trifluoro-3-methylbutanoyl]-amino}benzyl)cyclopropanecarboxylic acid]	0.9 nM	0.0073 µM	2.3 nM	30%	1.9 µM	0%	> 10 µM	0%	> 10 µM
C[C@H]([C@H](C(=O)Nc1cc(CC2(C(=O)O)CC2)ccc1Cl)c1ccc(C(C)(C)C(F)(F)F)cc1)C(F)(F)F [Example 44, 1-[4-chloro-3-({(2S,3R)-4,4,4-trifluoro-3-methyl-2-[4-(1,1,1-trifluoro-2-methylpropan-2-yl)phenyl]-butanoyl}amino)benzyl]cyclopropanecarboxylic acid]			0.3 nM	0%	> 10 µM	0%	> 10 µM	0%	> 10 µM

Source: patent publication US9018258B2, “Substituted 1-benzylcycloalkylcarboxylic acids and the use thereof” (Bayer Intellectual Property GmbH, priority 2010, dated 2015)
